Data: patent US20260055431A1, “METHODS OF DELIVERING COMPONENTS TO MICROORGANOSPHERES” (Xilis, Inc., priority 2022, published 2026)
“Also recorded” adds a separate entry of the source. Read-outs that look alike come from different tables or passages of the source.

Legend:
[1] = tested on: MOSs derived from multiple myeloma (MM) bone marrow biopsies; experiment: Multiple myeloma MOS apoptosis assay, Caspase 3/7 green dye, Incucyte imaging; format: cell-based, human; settings: imaged every 2 hours for 4 days
Description: FIGS. 36A and 36B show the efficacy of Lenalidomide and Bortezoid on MOSs derived from multiple myeloma (MM) bone marrow biopsies. MM MOSs (on day 11) were treated with Lenalidomine (5 uM) or Bortezoid (2 nM). Caspase 3/7 green dye was added in the assay to monitor apoptosis. Incucyte images were taken every 2 hours for 4 days. […] If this test were run on, for example, traditional bulk organoids, the results would not be reliable (due to the lack of patient immune cells) leading to uncertainty in the best course of action for patient treatment.

[2] = tested on: MOSs generated from biopsy material; experiment: Drug effect screen on MOSs from biopsy material (Example 3); format: cell-based, human; settings: Example 3 patient biopsy
Description: (§1) In a similar set of experiments, MOSs were generated from biopsy material (FIG. 23A), and a drug effect screen was performed using the resulting MOSs. […] Thus, the MOSs correlated strongly with patient response to the standard of care drugs. In this case, the patient endured six months of side effects and toxicities that may have been avoided by the predicted response from the MOSs, indicating (within 7-10 days from the biopsy) that the tumor would not respond to these drugs.

tumor [3] = experiment: Patient response to standard of care drugs (Example 3); format: in vivo, human; settings: patient treated with both Oxalipalatin and Irinotecan, after 6 months of treatment
Description: as §1

traditional cell line = experiment: Traditional (2D) cell line dosed with drug; format: cell-based; settings: all dose ranges examined
Description: As mentioned above, the MOSs and methods of using them to screen for drug compositions may be used to accurately predict the response of a patient tumor to one or more drug therapies. […] For example, in FIG. 22A-22D, the MOSs, but not a cell line, was able to correlate with patient response.

tumor [4] = experiment: Actual tumor response of the patient to treatment (Example 2); format: in vivo, human; settings: Example 2 patient, before vs post treatment
[5] = tested on: tumor MOSs generated from a patient biopsy; experiment: Drug screen on MOSs from patient biopsy (Example 2); format: cell-based, human; settings: Example 2 patient biopsy
[6] = tested on: PDX19187 bulk organoids and MOSs; format: cell-based, human; settings: cell viabilities measured after 3 days of treatment
Description: (§2) Organoids were formed from Patient Derived Xenograft cells (including the PDX240 cells described above and a second PDX cell line, PDX19187) and were compared with MOSs formed using the same cells. The organoids were formed using conventional techniques in which a large mass of MATRIGEL in a well or dish was seeded with cells and cultured until growth was confirmed. MOSs were generated from the traditional organoids.
(§3) Both traditional (“bulk”) organoids and the MOSs were then treated with the same drugs (e.g., Oxaliplatin or SN38) and cell viabilities were measured after 3 days of treatment.

[7] = tested on: PDX240 bulk organoids and MOSs; experiment: Drug response of bulk organoids vs MOSs, cell viability, PDX240; format: cell-based, human; settings: cell viabilities measured after 3 days of treatment
Description: The MOSs may be formed from cell lines grown as part of a Patient Derived Xenograft (PDX). For example, FIGS. 28A-28D illustrate MOSs formed from cultured PDX240 cells. PDX240 cells are a Patient Derived Xenograft (PDX) tumor cell line (numbered 240 based on patient source) that were human tumors grown in immunodeficient mice (PDX) to form in vivo tumors. The xenograft tissue was extracted dissociated, and used to form MOSs as described above. In this example a single cell was included in each MOS as it was formed. […] With progressive time in culture, at least some of the MOSs show the cells dividing and forming structures.
as §2, §3

human liver MOSs = experiment: Toxicity assay using human liver MOSs; format: cell-based; settings: 10 mM
Description: Similarly, FIGS. 34A-34B also show toxicity assays using human liver MOSs.

mouse liver MOSs = experiment: Toxicity assay using mouse liver MOSs; format: cell-based; settings: 10 mM
[8] = tested on: MOSs derived from renal tumor biopsies; experiment: IO assay of renal tumor MOSs, Annexin V apoptosis marker; format: cell-based, human; settings: MOSs from renal tumor biopsy
Description: IO assays of the MOSs for these pulmonary and renal tumor biopsies were prepared with an Annexin V marker to indicate cellular apoptosis. […] If this test were run on, for example, traditional bulk organoids, the results would not be meaningful (due to the lack of patient immune cells) leading to uncertainty in the best course of action for patient treatment, […]

[9] = tested on: MOSs derived from a pulmonary tumor biopsy; experiment: IO assay of pulmonary tumor MOSs, Annexin V apoptosis marker; format: cell-based, human
Description: IO assays of the MOSs for these pulmonary and renal tumor biopsies were prepared with an Annexin V marker to indicate cellular apoptosis. […] If this test were run on, for example, traditional bulk organoids, the results would not be meaningful (due to the lack of patient immune cells) leading to uncertainty in the best course of action for patient treatment,
IO assays of the MOSs for this pulmonary tumor biopsy were prepared with an Annexin V marker to indicate cellular apoptosis. […] If this test were run on, for example, traditional bulk organoids, the results would be less accurate (because ESK1 would not be able to reach its target) leading to uncertainty in the best course of action for patient treatment.
IO assays of the MOSs for this pulmonary tumor biopsy were prepared with an Annexin V marker to indicate cellular apoptosis and Cytolight Red dye to indicate tumor infiltrating lymphocytes (TILs). […] If this test were run on, for example, traditional bulk organoids, the results would be less accurate (due to the inability of PBMC to penetrate the traditional bulk organoids) leading to uncertainty in the best course of action for patient treatment.
This is an indication that TILs can penetrate MOS to kill tumor cells. […]

In the case of `CC(C)C[C@H](NC(=O)[C@H](Cc1ccccc1)NC(=O)c1cnccn1)B(O)O` [Bortezoid], the “response in the form of tumor cell apoptosis (Caspase 3/7 green dye)” value (shortened to “response in the form … (Caspase 3/7 green dye)”) ([1]; MM MOSs on day 11, 2 nM) is reported as “does not and not”.

In the case of `CCc1c2c(nc3ccc(OC(=O)N4CCC(N5CCCCC5)CC4)cc13)-c1cc3c(c(=O)n1C2)COC(=O)[C@]3(O)CC` [Irinotecan], the “percent survival of the MOSs in the presence of the drug” value [2] is reported as “lack of effect” and the patient response (tumor [3]) is reported as “no response”.

In the case of `Nc1cccc2c1CN(C1CCC(=O)NC1=O)C2=O` (centres unmarked) [Lenalidomide], the “response in the form … (Caspase 3/7 green dye)” value ([1]; MM MOSs on day 11, 5 uM) is reported as “good response” and the “response in the form … (Caspase 3/7 green dye)” value ([1]; MM MOSs on day 11, 5 uM, listed as Lenalidomine) is reported as “induces apoptosis”.

With `O=C1[O][Pt]2([NH][C@@H]3CCCC[C@H]3[NH]2)[O]C1=O` [Oxaliplatin] the “percent survival of the MOSs in the presence of the drug” value [2] was “no change”, the “effect of drug on cell line” value (traditional cell line) was “no effect” and the “tumor response to treatment” value (tumor [4]) was “responded to treatment”. For the same molecule, the “cell survival from the tumor MOSs” value [5] was “significant decreases in cell survival”, the “drug response curves, bulk organoids compared with MOSs” value ([6]; listed as Oxalipalatin) was “comparable response” and the patient response (tumor [3]) was “no response”.

For `CCc1c2c(nc3ccc(O)cc13)-c1cc3c(c(=O)n1C2)COC(=O)[C@]3(O)CC` [SN38, 7-Ethyl-10-hydroxy-camptothecin], the “drug response curves, bulk organoids compared with MOSs” value [7] was “comparable responses” and the “drug response curves, bulk organoids compared with MOSs” value [6] was “comparable responses”.

With `CC(=O)Nc1ccc(O)cc1` [acetaminophen] the “tissue in the treated MOSs compared with control group” value (human liver MOSs) was “significant increase atypical tissue structures (arrows) and debris” and the “tissue in the MOSs compared with control group” value (mouse liver MOSs) was “smaller and contains many dead cells”.

Nivolumab was tested, and the “response in the form of tumor cell apoptosis (Annexin V marker)” value [8] was “induces apoptosis; also recorded: good response” and the “response in the form of tumor cell apoptosis (Annexin V marker)” value [9] was “induces apoptosis; also recorded: good response”.
